This is an account of results in patent publication US7872133B2, “Tricyclic heterocycle compound” (Ono Pharmaceutical Co., Ltd., priority 2003, dated 2011).

One assay deals with T1, MBR (Rattus norvegicus, UniProt P16257).
T1 construct: from tissue; host or cells: whole brain without cerebellum of male Wistar rats, crude membrane preparation
The experiment in a line: Receptor Binding Experiment (competition with [3H]PK11195). The settings on record: rat brain membrane preparation, [3H]PK11195 as MBR selective ligand; Ki by Cheng and Prusoff formula. Here is the method: The affinity of the compounds in the present invention to MBR was determined using rat brain membrane preparation. In addition, the measurement in the present invention was improved the accuracy of measurement and the sensitivity of measurement for evaluating the compounds in the present invention as follows. After male Wister rats were decapitated to extirpate the whole brain and cerebellums were removed. They were homogenized in ice-cold 50 mmol/L Tris-HCL buffer solution (pH7.4), centrifuged and the obtained pellets were washed. The pellets resuspended and adjusted to about 1 mg/mL were used as rat brain membrane preparations for binding assay. The binding assay were experimented using [^3H]PK11195 as a MBR selective ligand. […]
To determine the amount of total binding in saturation binding experiment, membrane preparations, various concentrations of [^3H]PK11195, final concentration: 0.5 vol % dimethylsulfoxide (DMSO) and 50 mmol/L Tris-HCL buffer solution (pH7.4) were mixed (total volume 200 μL) and were incubated for 1 hour at room temperature. […] The filter was dried and then the radioactivity on the filter was measured by liquid scintillation counter. The data obtained by the binding experiments were Scatchard-analyzed using analysis software, KELL (Ver. 6, BIOSOFT) and the dissociation constant (KD value) was determined. […]

For the next assay, the system named is male Wistar rats. As to the kind of experiment: Evaluation of Anti-Stress Effects (psychological stress, number of defecation). Type of assay: in vivo, rat. The settings on record: 10 mg/kg orally 30 minutes before stressor; counted 1 hour later; media treated group average 8.0 feces. How it is done: Psychological stress was loaded to male Wistar rats (Brain Research, 641, 21-28, 1994). Water was stored up to the depth of about 10 cm in a container where the platform was set at the center. A stressor began to load to rats 30 minutes after the vehicle or the compound in the present invention (the compound of Example 17) were orally administered by dosage of 10 mg/kg. The number of defecation was counted 1 hour later (10 per each group). Rats without administration and load of stressor rarely defecated for 1 hour. In contrast, remarkable defecation was admitted in media treated group (average 8.0 feces) loaded by stressor. […] The results clarified that the compounds in the present invention had anti-stress effects.

Usually Ki stands for the equilibrium dissociation constant of an inhibitor or competing ligand from its target. Read a low Ki as a stronger hold on the target.

As to `CC(=O)N1CC2(CC2)c2c([nH]c3ccccc23)C1c1cccc(F)c1` (stereo not drawn) [Example 17, 2-acetyl-1-(3-fluorophenyl)-1,2,3,9-tetrahydrospiro[β-carboline-4,1′-cyclopropane]], the Ki at MBR came out at 21 nM. Moreover, the “number of defecation (average)” value in the assay on male Wistar rats came to 5.4 feces.
